Laboratory results published in PubChem BioAssay (NCI).
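Protocol summary: plate cells (96-well), add compound at 5 concentrations, incubate 48 h, interpolate endpoints linearly. TGI is the concentration that stops growth completely.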

Experiments:
Assay in all cases: NCI tumour cell line growth inhibition, 48 h
786-0 renal = test system: 786-0 renal
A498 renal = test system: A498 renal
A549 NSCLC = test system: A549 NSCLC
ACHN renal = test system: ACHN renal
BT-549 breast = test system: BT-549 breast
CAKI-1 renal = test system: CAKI-1 renal
COLO 205 colon = test system: COLO 205 colon
DU-145 prostate = test system: DU-145 prostate
EKVX NSCLC = test system: EKVX NSCLC
HCC-2998 colon = test system: HCC-2998 colon
HCT-116 colon = test system: HCT-116 colon
HCT-15 colon = test system: HCT-15 colon
HL-60(TB) leukemia = test system: HL-60(TB) leukemia
HOP-62 NSCLC = test system: HOP-62 NSCLC
HS 578T breast = test system: HS 578T breast
HT29 colon = test system: HT29 colon
IGROV1 ovarian = test system: IGROV1 ovarian
KM12 colon = test system: KM12 colon
LOX IMVI melanoma = test system: LOX IMVI melanoma
M14 melanoma = test system: M14 melanoma
MALME-3M melanoma = test system: MALME-3M melanoma
MCF7 breast = test system: MCF7 breast
MDA-MB-231 breast = test system: MDA-MB-231 breast
MDA-MB-435 = test system: MDA-MB-435
MDA-N = test system: MDA-N
NCI-H226 lung = test system: NCI-H226 lung
NCI-H23 lung = test system: NCI-H23 lung
NCI-H460 lung = test system: NCI-H460 lung
NCI-H522 lung = test system: NCI-H522 lung
NCI/ADR-RES ovarian = test system: NCI/ADR-RES ovarian
OVCAR-3 ovarian = test system: OVCAR-3 ovarian
OVCAR-5 ovarian = test system: OVCAR-5 ovarian
OVCAR-8 ovarian = test system: OVCAR-8 ovarian
PC-3 prostate = test system: PC-3 prostate
RXF 393 renal = test system: RXF 393 renal
SF-295 CNS = test system: SF-295 CNS
SF-539 CNS = test system: SF-539 CNS
SK-MEL-2 melanoma = test system: SK-MEL-2 melanoma
SK-MEL-28 melanoma = test system: SK-MEL-28 melanoma
SK-MEL-5 melanoma = test system: SK-MEL-5 melanoma
SK-OV-3 ovarian = test system: SK-OV-3 ovarian
SN12C renal = test system: SN12C renal
SNB-19 CNS = test system: SNB-19 CNS
SNB-75 CNS = test system: SNB-75 CNS
SW-620 colon = test system: SW-620 colon
T-47D breast = test system: T-47D breast
TK-10 renal = test system: TK-10 renal
U251 CNS = test system: U251 CNS
UACC-257 melanoma = test system: UACC-257 melanoma
UACC-62 melanoma = test system: UACC-62 melanoma
UO-31 renal = test system: UO-31 renal
HOP-92 NSCLC = test system: HOP-92 NSCLC
K-562 leukemia = test system: K-562 leukemia
MOLT-4 leukemia = test system: MOLT-4 leukemia
OVCAR-4 ovarian = test system: OVCAR-4 ovarian
RPMI-8226 leukemia = test system: RPMI-8226 leukemia
SF-268 CNS = test system: SF-268 CNS

Work on `COc1ccc2cc(CNCCCCCCNCc3ccc4cc(OC)ccc4c3)ccc2c1` yielded a TGI (786-0 renal) of 2.48 µM, a TGI (A498 renal) of 2.99 µM and a TGI (A549 NSCLC) of 3.44 µM. It also gave a TGI (ACHN renal) of 2.92 µM, a TGI (BT-549 breast) of 3.14 µM and a TGI (CAKI-1 renal) of 2.71 µM. The TGI (COLO 205 colon) was 0.291 µM, the TGI (DU-145 prostate) was 2.99 µM and the TGI (EKVX NSCLC) was 2.74 µM. The TGI (HCC-2998 colon) was 0.277 µM, the TGI (HCT-116 colon) was 0.324 µM and the TGI (HCT-15 colon) was 1.39 µM. It also gave a TGI (HL-60(TB) leukemia) of 0.396 µM, a TGI (HOP-62 NSCLC) of 3.07 µM and a TGI (HS 578T breast) of 3.62 µM. It also gave a TGI (HT29 colon) of 0.383 µM, a TGI (IGROV1 ovarian) of 3.15 µM and a TGI (KM12 colon) of 0.511 µM. The TGI (LOX IMVI melanoma) was 0.325 µM, the TGI (M14 melanoma) was 0.315 µM and the TGI (MALME-3M melanoma) was 2.62 µM. It also gave a TGI (MCF7 breast) of 1.2 µM, a TGI (MDA-MB-231 breast) of 1.38 µM and a TGI (MDA-MB-435) of 0.497 µM. The TGI (MDA-N) was 0.36 µM, the TGI (NCI-H226 lung) was 3.49 µM and the TGI (NCI-H23 lung) was 3.8 µM. It also gave a TGI (NCI-H460 lung) of 0.94 µM, a TGI (NCI-H522 lung) of 1.76 µM and a TGI (NCI/ADR-RES ovarian) of 2.74 µM. The TGI (OVCAR-3 ovarian) was 1.17 µM, the TGI (OVCAR-5 ovarian) was 2.03 µM and the TGI (OVCAR-8 ovarian) was 1.15 µM. The TGI (PC-3 prostate) was 0.918 µM, the TGI (RXF 393 renal) was 3.07 µM and the TGI (SF-295 CNS) was 0.961 µM. For the same compound, the TGI (SF-539 CNS) was 3.05 µM, the TGI (SK-MEL-2 melanoma) was 2.64 µM and the TGI (SK-MEL-28 melanoma) was 1.42 µM. The TGI (SK-MEL-5 melanoma) was 2.67 µM, the TGI (SK-OV-3 ovarian) was 3.24 µM and the TGI (SN12C renal) was 2.67 µM. The TGI (SNB-19 CNS) was 1.87 µM, the TGI (SNB-75 CNS) was 2.66 µM and the TGI (SW-620 colon) was 0.351 µM. It also gave a TGI (T-47D breast) of 2.07 µM, a TGI (TK-10 renal) of 3.28 µM and a TGI (U251 CNS) of 0.601 µM. For the same compound, the TGI (UACC-257 melanoma) was 3.34 µM, the TGI (UACC-62 melanoma) was 2.8 µM and the TGI (UO-31 renal) was 3.01 µM.
In the case of `CC(C)(C)CC(C)(C)c1cc(O)c(O)c(CN2CCCCC2)c1`, the TGI (786-0 renal) is reported as 26.7 µM, the TGI (A498 renal) is reported as 27.3 µM and the TGI (A549 NSCLC) is reported as 30.8 µM. The TGI (ACHN renal) was 25.6 µM, the TGI (BT-549 breast) was 28.4 µM and the TGI (CAKI-1 renal) was 27.9 µM. For the same compound, the TGI (COLO 205 colon) was 25.3 µM, the TGI (DU-145 prostate) was 30.5 µM and the TGI (EKVX NSCLC) was 26.4 µM. The TGI (HCC-2998 colon) was 22.4 µM, the TGI (HCT-116 colon) was 29.5 µM and the TGI (HCT-15 colon) was 15.9 µM. For the same compound, the TGI (HL-60(TB) leukemia) was 31.6 µM, the TGI (HOP-62 NSCLC) was 30.1 µM and the TGI (HOP-92 NSCLC) was 35 µM. The TGI (HS 578T breast) was 41.3 µM, the TGI (HT29 colon) was 19.7 µM and the TGI (IGROV1 ovarian) was 34.6 µM. The TGI (K-562 leukemia) was 19.3 µM, the TGI (KM12 colon) was 40.4 µM and the TGI (LOX IMVI melanoma) was 24.3 µM. It also gave a TGI (M14 melanoma) of 29 µM, a TGI (MALME-3M melanoma) of 25.9 µM and a TGI (MCF7 breast) of 25.1 µM. It also gave a TGI (MDA-MB-231 breast) of 32.6 µM, a TGI (MDA-MB-435) of 37.1 µM and a TGI (MDA-N) of 28.3 µM. For the same compound, the TGI (MOLT-4 leukemia) was 16.4 µM, the TGI (NCI-H226 lung) was 32 µM and the TGI (NCI-H23 lung) was 29.6 µM. It also gave a TGI (NCI-H460 lung) of 24 µM, a TGI (NCI-H522 lung) of 23.5 µM and a TGI (NCI/ADR-RES ovarian) of 19 µM. For the same compound, the TGI (OVCAR-3 ovarian) was 28 µM, the TGI (OVCAR-4 ovarian) was 42 µM and the TGI (OVCAR-5 ovarian) was 31.8 µM. It also gave a TGI (OVCAR-8 ovarian) of 33.1 µM, a TGI (PC-3 prostate) of 26.9 µM and a TGI (RPMI-8226 leukemia) of 30.6 µM. It also gave a TGI (RXF 393 renal) of 29.2 µM, a TGI (SF-268 CNS) of 25.3 µM and a TGI (SF-295 CNS) of 32.3 µM. For the same compound, the TGI (SK-MEL-28 melanoma) was 32.8 µM, the TGI (SK-MEL-5 melanoma) was 28.9 µM and the TGI (SK-OV-3 ovarian) was 34.8 µM. The TGI (SN12C renal) was 30.3 µM, the TGI (SNB-19 CNS) was 28.8 µM and the TGI (SNB-75 CNS) was 37.3 µM. It also gave a TGI (SW-620 colon) of 28 µM, a TGI (T-47D breast) of 33.9 µM and a TGI (TK-10 renal) of 29.6 µM. It also gave a TGI (U251 CNS) of 24.3 µM, a TGI (UACC-257 melanoma) of 26.1 µM and a TGI (UACC-62 melanoma) of 29.8 µM. It also gave a TGI (UO-31 renal) of 26.1 µM.
